Key:
[1] = biological target: T1, human α1D‐adrenoceptor (full length) (Homo sapiens, UniProt P25100); experiment: ^3H‐prazosin whole‐cell radioligand binding, CHO‐α1D cells; details: CHO‐α1D cells
T1 construct: human α1D‐adrenoceptor (full length) were used; expressed in transfected cells; host or cells: CHO-K1
T1 sequence (P25100 1-572): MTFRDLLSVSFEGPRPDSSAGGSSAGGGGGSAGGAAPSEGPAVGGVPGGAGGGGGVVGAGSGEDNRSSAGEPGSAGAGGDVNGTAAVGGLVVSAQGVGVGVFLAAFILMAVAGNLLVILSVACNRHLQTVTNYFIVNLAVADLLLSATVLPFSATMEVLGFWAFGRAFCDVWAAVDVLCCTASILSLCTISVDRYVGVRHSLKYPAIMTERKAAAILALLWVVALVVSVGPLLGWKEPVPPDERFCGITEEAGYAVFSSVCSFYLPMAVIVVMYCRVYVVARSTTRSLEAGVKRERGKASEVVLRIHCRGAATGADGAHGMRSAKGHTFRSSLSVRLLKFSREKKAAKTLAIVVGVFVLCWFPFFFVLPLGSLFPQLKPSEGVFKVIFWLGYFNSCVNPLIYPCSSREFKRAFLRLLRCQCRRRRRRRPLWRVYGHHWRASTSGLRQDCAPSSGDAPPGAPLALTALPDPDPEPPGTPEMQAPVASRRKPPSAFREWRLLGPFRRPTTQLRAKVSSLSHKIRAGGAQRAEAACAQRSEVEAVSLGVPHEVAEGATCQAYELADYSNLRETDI

[2] = biological target: T1, human α1D‐adrenoceptor (full length); experiment: ERK1/2‐phosphorylation (Surefire Alphascreen), CHO‐α1D cells; assay type: cell-based
human α1A‐adrenoceptor [3] = biological target: T2, human α1A‐adrenoceptor (Homo sapiens, UniProt P35348); experiment: ^3H‐cAMP accumulation in the presence of 10 μM forskolin, CHO‐α1A cells; assay type: cell-based; details: CHO‐α1A cells; 10 μM forskolin; read-out: cAMP accumulation (in presence of forskolin) Log EC50 (converted)
T2 construct: expressed in transfected cells; host or cells: CHO-K1
T2 sequence (P35348 1-466): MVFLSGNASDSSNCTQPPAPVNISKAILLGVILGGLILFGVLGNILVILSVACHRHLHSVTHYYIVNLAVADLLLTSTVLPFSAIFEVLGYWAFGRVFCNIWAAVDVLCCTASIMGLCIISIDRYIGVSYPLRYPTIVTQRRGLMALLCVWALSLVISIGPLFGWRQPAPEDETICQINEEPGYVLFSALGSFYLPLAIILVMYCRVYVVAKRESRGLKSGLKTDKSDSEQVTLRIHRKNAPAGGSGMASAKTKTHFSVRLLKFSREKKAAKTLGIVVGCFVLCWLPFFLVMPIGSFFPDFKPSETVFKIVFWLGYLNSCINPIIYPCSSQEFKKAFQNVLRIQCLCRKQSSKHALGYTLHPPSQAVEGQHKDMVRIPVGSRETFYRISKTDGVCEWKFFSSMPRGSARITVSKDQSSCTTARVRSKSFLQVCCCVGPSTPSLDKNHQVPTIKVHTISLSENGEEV

[4] = system: parental CHO cell line without any transfected receptors; experiment: ERK1/2‐phosphorylation, parent CHO cells without transfected receptors; assay type: cell-based, Chinese hamster; details: Cricetulus griseus, CHO; read-out: ERK1/2-phosphorylation % PDBu at 100μM
[5] = biological target: T1, human α1D‐adrenoceptor (full length); experiment: ^3H‐cAMP accumulation, CHO‐α1D cells; assay type: cell-based; details: cAMP accumulation without forskolin
human α1A‐adrenoceptor [6] = biological target: T2, human α1A‐adrenoceptor; experiment: Intracellular free calcium mobilization, CHO‐α1A cells; assay type: cell-based
human α1A‐adrenoceptor [7] = biological target: T2, human α1A‐adrenoceptor; experiment: ERK1/2‐phosphorylation (Surefire Alphascreen), CHO‐α1A cells; assay type: cell-based
human α1A‐adrenoceptor [8] = biological target: T2, human α1A‐adrenoceptor; experiment: ^3H‐cAMP accumulation, CHO‐α1A cells; assay type: cell-based; details: CHO‐α1A cells
[9] = system: parental CHO cell line without any transfected receptors; experiment: Intracellular calcium mobilization, parent CHO cells without transfected receptors; assay type: cell-based, Chinese hamster; details: Cricetulus griseus; CHO cells without transfected receptors; response at maximum concentration used (c2), as % of ionomycin (10μM) response; mean ± s.e.m.; read-out: Intracellular calcium release % ionomycin
[10] = biological target: T1, human α1D‐adrenoceptor (full length); experiment: Intracellular free calcium mobilization, CHO‐α1D cells; assay type: cell-based
human α1A‐adrenoceptor [11] = biological target: T2, human α1A‐adrenoceptor; experiment: ^3H‐prazosin whole‐cell radioligand binding, CHO‐α1A cells; details: Log KD α1A, ^3H‐prazosin whole cell binding, CHO‐α1A cells; given as log KD (negative); mean ± SEM
[12] = system: parental CHO cell line without any transfected receptors; experiment: Forskolin‐stimulated cAMP accumulation, parent CHO cells without transfected receptors; assay type: cell-based, Chinese hamster; details: CHO cells without transfected receptors; in presence of forskolin
[13] = biological target: T1, human α1D‐adrenoceptor (full length); experiment: ^3H‐cAMP accumulation in the presence of 10 μM forskolin, CHO‐α1D cells; assay type: cell-based; details: CHO‐α1D cells; in presence of forskolin; log values given negative

N=C(N)N/N=C/c1c(Cl)cccc1Cl [Guanabenz]
Kd ([1]; 3H‐prazosin binding Log KD, whole‐cell binding (from Table 1), log values given negative): 955 nM
Kd ([1]; Log KD α1D, ^3H‐prazosin whole cell binding, given as log KD (negative), mean ± SEM, 'early plateau' = specific binding not fully inhibited): 955 nM
ERK1/2‐phosphorylation % PDBu at 100 µM [2]: 20.8 ± 6.6%
EC50 (human α1A‐adrenoceptor [3]): 145 nM
Emax at 100 µM [4]: 8.5 ± 3.1%
cAMP Log EC50 [5]: No response
Intracellular calcium release % ionomycin (human α1A‐adrenoceptor [6]): 17.8 ± 3.2%
EC50 (human α1A‐adrenoceptor [6]; CHO‐α1A cells, given as log EC50 (negative), read-out: Intracellular calcium release Log EC50 (converted)): 110 nM
ERK1/2‐phosphorylation % PDBu (human α1A‐adrenoceptor [7]): 68.4 ± 8.6%
EC50 (human α1A‐adrenoceptor [7]; CHO‐α1A cells, 2–4 min, ^a bi‐phasic: initial stimulatory part, ^b also active in parent CHO cells, read-out: ERK1/2‐phosphorylation Log EC50 (converted)): 204 nM
EC50 (human α1A‐adrenoceptor [8]; 5 h, read-out: cAMP accumulation Log EC50 (converted)): 1820 nM
cAMP accumulation % forskolin (human α1A‐adrenoceptor [8]; % of 10 µM forskolin response): 2.1 ± 0.3%
Emax [9]: 23.5 ± 7.4%
Intracellular calcium release % Ionomycin at 100 µM [10]: 20.2 ± 5.1%
Kd (human α1A‐adrenoceptor [11]): 331 nM
cAMP accumulation (in presence of forskolin) Log EC50 [12]: No response
cAMP (in presence of forskolin) Log EC50 [13]: No response

— paper PMC8343220, “The selectivity of α‐adrenoceptor agonists for the human α1A, α1B, and α1D‐adrenoceptors” (Pharmacology Research & Perspectives, 2021)
